The text below walks through data of ChEMBL document CHEMBL1136831, “CRF ligands via Suzuki and Negishi couplings of 3-pyridyl boronic acids or halides with 2-benzyloxy-4-chloro-3-nitropyridine” (Bioorg Med Chem Lett, 2003).

The Ki is the dissociation constant of the complex between target and ligand, obtained from inhibition or displacement.

The target in the experiment is Corticotropin releasing factor receptor (Rattus norvegicus, UniProt P47866+P35353). The experiment is described as follows: Binding affinity at Corticotropin releasing factor receptor of rat cortical homogenates.
As to `CCCC(C)n1c(CC)nc2c(-c3ccc(O)nc3C(F)(F)F)ccnc21` (stereo not drawn), the Ki is listed as 602 nM. As for `CCc1nc2c(-c3ccc(Cl)nc3C)ccnc2n1C(CC)C1CC1` (stereo not drawn), the figure is 3.3 nM. Next, `CCCC(C)n1c(CC)nc2c(-c3cnc(OC)cc3C)ccnc21` (stereo not drawn): 17.1 nM; `CCc1nc2c(-c3ccc(OC)nc3C(F)(F)F)ccnc2n1C(C)C1CCC1` (stereo not drawn): 0.8 nM.

Consider `CCCC(C)n1c(CC)nc2c(-c3ccc(Cl)nc3C)ccnc21` (stereo not drawn), for which the Ki amounted to 6.6 nM. On to `CCc1nc2c(-c3ccc(OC)nc3C(F)(F)F)ccnc2n1C(CC)CCOC` (stereo not drawn), for which the Ki is on record as 1.6 nM. This Ki lies about 4.1-fold lower than the previous one. As for `CCc1nc2c(-c3ccc(OC)nc3C(F)(F)F)ccnc2n1C(C)CC` (stereo not drawn), the figure is 0.7 nM; as for `CCc1nc2c(-c3ccc(OC)nc3C)ccnc2n1C(C)C1CCC1` (stereo not drawn), 2.1 nM.

With `CCc1nc2c(-c3ccc(N(C)C)nc3C)ccnc2n1C(CC)C1CC1` (stereo not drawn), the Ki was determined as 7.5 nM. This Ki is about 3.6-fold higher than that of the compound before. Next, `CCCC(C)n1c(CC)nc2c(-c3ccc(OC)nc3C)ccnc21` (stereo not drawn): 1.1 nM. As for `CCc1nc2c(-c3ccc(OC)cc3C)ccnc2n1C(CC)C1CC1` (stereo not drawn), the figure is 0.5 nM; as for `CCCC(C)n1c(CC)nc2c(-c3ccc(O)nc3C)ccnc21` (stereo not drawn), over 10000 nM. Next, `CCCC(C)n1c(CC)nc2c(-c3ccc(OCCO)nc3C(F)(F)F)ccnc21` (stereo not drawn): 10.1 nM; `CCc1nc2c(-c3ccc(OC)nc3C)ccnc2n1C(C)CC` (stereo not drawn): 9.2 nM; `CCc1nc2c(-c3ccc(OC)nc3C(F)(F)F)ccnc2n1C(CC)C1CC1` (stereo not drawn): 0.7 nM. Compound `CCc1nc2c(-c3ccc(OC)nc3C)ncnc2n1C(C1CC1)C1CC1` showed an inhibition constant (Ki) of 1.8 nM. Next, `CCc1nc2c(-c3ccc(OC)cc3C)ncnc2n1C(C1CC1)C1CC1`: 1.9 nM; `CCc1nc2c(-c3ccc(OC)nc3C)ccnc2n1C(C)C1CC1` (stereo not drawn): 2 nM.
